According to US20150315188A1, “COMPOUNDS AND METHODS FOR TREATMENT OF HYPERTENSION” (MEDIVATION TECHNOLOGIES, INC., priority 2012, published 2015):

How the values were obtained:
Set-up in all cases: purchased Milipore (Millipore)
[1] = target: T1, Human adrenergic α1B receptor (Homo sapiens, UniProt P35368); test: Radioligand binding, adrenergic α1B (Protocol Group B); details: Protocol Group B; for inhibition at 0.1 µM / Percentage inhibition of ligand binding, Adrenergic α1B (0.1 μM): 0.1 μM compound; for inhibition at 0.1 µM: read-out: Percentage inhibition of ligand binding, Adrenergic α1B (0.1 μM); for Percentage inhibition of ligand binding, Adrenergic α1B (0.3 μM) / inhibition at 0.3 µM: 0.3 μM compound; for inhibition at 0.3 µM: read-out: Percentage inhibition of ligand binding, Adrenergic α1B (0.3 μM)
T1 sequence (P35368 1-520): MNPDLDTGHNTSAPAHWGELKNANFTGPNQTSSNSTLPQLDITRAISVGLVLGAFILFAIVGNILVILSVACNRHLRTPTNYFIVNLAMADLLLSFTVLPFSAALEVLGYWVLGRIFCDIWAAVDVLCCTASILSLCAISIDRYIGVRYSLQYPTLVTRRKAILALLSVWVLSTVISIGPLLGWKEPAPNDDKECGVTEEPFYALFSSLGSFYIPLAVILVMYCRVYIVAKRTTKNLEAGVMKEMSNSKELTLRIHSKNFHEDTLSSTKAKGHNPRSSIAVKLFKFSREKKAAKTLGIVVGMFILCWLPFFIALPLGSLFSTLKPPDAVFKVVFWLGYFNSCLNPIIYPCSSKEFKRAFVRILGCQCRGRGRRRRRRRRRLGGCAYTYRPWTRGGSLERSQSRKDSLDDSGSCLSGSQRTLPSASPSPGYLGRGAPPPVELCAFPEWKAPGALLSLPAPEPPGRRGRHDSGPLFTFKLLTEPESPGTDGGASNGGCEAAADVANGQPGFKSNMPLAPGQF
Method in brief: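 Recombinant human α1B membranes incubated with test compound and 0.3 nM [3H]prazosin, 60 min at 25 °C, in 50 mM Tris-HCl pH 7.4, 10 mM MgCl2, 1 mM EDTA; nonspecific binding with 10 μM prazosin. Filter-bound radioactivity counted; values are % inhibition of specific binding or estimated Ki.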

[2] = target: T2, Human adrenergic α2B receptor (Homo sapiens, UniProt P18089); test: Radioligand binding, adrenergic α2B (Protocol Group B); details: Protocol Group B; for Percentage inhibition of ligand binding, Adrenergic α2B (10 nM) / inhibition at 0.01 µM: 10 nM compound; for Percentage inhibition of ligand binding, Adrenergic α2B (10 nM): 0.01 µM; for inhibition at 0.03 µM / Percentage inhibition of ligand binding, Adrenergic α2B (30 nM): 30 nM compound; for inhibition at 0.03 µM: read-out: Percentage inhibition of ligand binding, Adrenergic α2B (30 nM); for Percentage inhibition of ligand binding, Adrenergic α2B (0.1 μM) / inhibition at 0.1 µM: 0.1 μM compound; for Percentage inhibition of ligand binding, Adrenergic α2B (30 nM): 0.03 µM; for inhibition at 0.01 µM: read-out: Percentage inhibition of ligand binding, Adrenergic α2B (10 nM); for inhibition at 0.1 µM: read-out: Percentage inhibition of ligand binding, Adrenergic α2B (0.1 μM)
T2 sequence (P18089 1-450): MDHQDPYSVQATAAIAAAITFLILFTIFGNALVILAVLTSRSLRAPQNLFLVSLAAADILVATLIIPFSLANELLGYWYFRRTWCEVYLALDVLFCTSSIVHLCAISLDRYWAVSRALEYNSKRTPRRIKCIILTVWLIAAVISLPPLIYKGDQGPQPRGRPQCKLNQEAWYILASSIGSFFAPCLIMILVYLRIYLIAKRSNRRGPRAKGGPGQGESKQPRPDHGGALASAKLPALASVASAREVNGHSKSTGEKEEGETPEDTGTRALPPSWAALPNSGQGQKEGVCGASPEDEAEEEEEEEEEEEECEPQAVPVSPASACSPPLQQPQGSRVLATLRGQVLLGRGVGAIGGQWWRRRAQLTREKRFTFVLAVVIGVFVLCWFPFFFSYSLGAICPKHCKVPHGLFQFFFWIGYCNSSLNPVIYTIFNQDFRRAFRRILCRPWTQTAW
Method in brief: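 Recombinant human α2B receptor membranes incubated with compounds in 50 mM Tris-HCl pH 7.4, 5 mM MgCl2, 1 mM CaCl2, 0.2% BSA, 1% DMSO vehicle. Non-specific binding defined with 10 μM rauwolscine. Values are percent inhibition of specific binding or estimated Ki.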

[3] = target: T3, Human adrenergic α2A receptor (Homo sapiens, UniProt P08913); test: Radioligand binding, adrenergic α2A (Protocol Group B); details: Protocol Group B; for Percentage inhibition of ligand binding, Adrenergic α2A (0.3 μM) / inhibition at 0.3 µM: 0.3 μM compound; for inhibition at 0.3 µM: read-out: Percentage inhibition of ligand binding, Adrenergic α2A (0.3 μM)
T3 sequence (P08913 1-465): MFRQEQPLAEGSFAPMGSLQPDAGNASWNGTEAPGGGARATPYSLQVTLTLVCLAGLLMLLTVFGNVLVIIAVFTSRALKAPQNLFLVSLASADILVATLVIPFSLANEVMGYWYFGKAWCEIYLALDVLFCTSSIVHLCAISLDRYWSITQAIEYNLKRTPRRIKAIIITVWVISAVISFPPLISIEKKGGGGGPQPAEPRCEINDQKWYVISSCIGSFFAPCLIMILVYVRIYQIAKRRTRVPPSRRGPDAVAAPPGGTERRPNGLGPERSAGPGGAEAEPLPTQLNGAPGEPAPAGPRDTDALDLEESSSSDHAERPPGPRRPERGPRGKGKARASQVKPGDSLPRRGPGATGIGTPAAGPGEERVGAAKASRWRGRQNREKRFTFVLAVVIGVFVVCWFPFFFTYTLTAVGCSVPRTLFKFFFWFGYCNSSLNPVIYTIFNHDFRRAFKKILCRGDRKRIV
Method in brief: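 Membranes from recombinant cells expressing the receptor, in 50 mM Tris-HCl pH 7.4 with 5 mM MgCl2, 1 mM CaCl2, 0.2% BSA; compounds incubated with 2 nM [^3H]MK-912 for 60 min at 25° C. Nonspecific binding defined by 10 μM rauwolscine; filtration, counting; percent inhibition of specific binding, or estimated Ki.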

inhibition at 0.1 µM [1]	Percentage inhibition of ligand binding, Adrenergic α1B (0.3 μM) [1]	Percentage inhibition of ligand binding, Adrenergic α2B (10 nM) [2]	inhibition at 0.03 µM [2]	Percentage inhibition of ligand binding, Adrenergic α2B (0.1 μM) [2]	Percentage inhibition of ligand binding, Adrenergic α2A (0.1 μM) ([3]; 0.1 μM compound)	Percentage inhibition of ligand binding, Adrenergic α2A (0.3 μM) [3]	Percentage inhibition of ligand binding, Adrenergic α1B (0.1 μM) [1]	Percentage inhibition of ligand binding, Adrenergic α2B (30 nM) [2]	inhibition at 0.3 µM [1]	inhibition at 0.01 µM [2]	inhibition at 0.1 µM [2]	Ki ([2]; estimated Ki, read-out: Ki α2B)	inhibition at 0.3 µM [3]	inhibition at 0.1 µM ([3]; 0.1 μM compound, read-out: Percentage inhibition of ligand binding, Adrenergic α2A (0.1 μM))	SMILES
17%	34%	11%	35%	64%	17%	19%									Cc1ccc2c(c1)c1c(n2CC(C)(O)c2ccc(N(C)C)nc2)CCN(C)C1 (stereo not shown) [compound 39, 1-(2,8-dimethyl-3,4-dihydro-1H-pyrido[4,3-b]indol-5(2H)-yl)-2-(6-(dimethylamino)pyridin-3-yl)propan-2-ol]
	18%	−10%		34%	−7%	−2%	4%	0%							Cc1ccc2c(c1)c1c(n2CC(O)c2ccccn2)CC2CCCN2C1 (single isomer, unassigned) [45d]
	12%	1%		22%	−4%	3%	1%	14%							Cc1ccc2c(c1)c1c(n2CC(C)(O)c2cccnc2)CC2CCCN2C1 (stereo not shown) [38d]
	1%	0%		23%	−10%	−4%	0%	11%							Cc1cc(F)c2c(c1)c1c(n2CC(C)(O)c2cccnc2)CC2CCCN2C1 (single isomer, unassigned) [61d]
			97%		60%		12%		50%	87%	98%	1.7 nM	74%		CC(O)(Cn1c2c(c3cc(Cl)cc(F)c31)C1CCCN1CC2)c1cccnc1 (single isomer, unassigned) [53a]
	55%	41%		80%	−7%	38%	20%	58%							OC(Cn1c2c(c3cc(F)ccc31)C1CCCN1CC2)c1ccncc1 (single isomer, unassigned) [18a]
	68%	25%		75%	15%	17%	40%	48%							Cc1ccc2c(c1)c1c(n2CC(C)(O)c2ccncc2)CC2CCCN2C1 (single isomer, unassigned) [37b]
10%			35%						15%	6%	54%		23%	12%	CN1CCc2c(c3cccc(Cl)c3n2CC(O)c2cccnc2)C1 (stereo not shown) [compound 20, 2-(6-chloro-2-methyl-3,4-dihydro-1H-pyrido[4,3-b]indol-5-(2H)-yl)-1-(pyridin-3-yl)ethanol]
	0%	−17%			−17%	−16%	−5%	−11%							Cc1cc(C)c2c(c1)c1c(n2CC(C)(O)c2cccnc2)CCN2CCCC12 (single isomer, unassigned) [44d]
					81%		57%	92%							Cc1cc(C)c2c(c1)c1c(n2CC(O)C2CCCCC2)CCN2CCCC12 (stereo not shown) [141b]
					44%		91%	89%							OC(Cn1c2c(c3cc(Cl)ccc31)C1CCCN1CC2)c1ccncc1 (single isomer, unassigned) [143a]
	28%	−1%	30%		11%		9%				74%		21%		Cc1ccc2c(c1)c1c(n2CC(C)(O)c2ccncc2)CCN2CCCC12 (single isomer, unassigned) [13c]
					7%		15%	4%							OC(Cn1c2c(c3cc(Cl)ccc31)C1CCCN1CC2)c1ccncc1 (single isomer, unassigned) [143d]
